Measured values as given in US20260021092A1, “STRUCTURE-BASED DESIGN OF A NOVEL CLASS OF DRUGS FOR NEURODEGENERATIVE DISEASE” (The Regents of the University of California, priority 2022, published 2026).

What was measured:
α-synuclein fibrils = α-synuclein fibrils (Homo sapiens, UniProt P37840); assay: Table A function: disaggregators of amyloid fibrils (alpha-synuclein)
tau fibrils = tau fibrils (Homo sapiens, UniProt P10636); assay: Table A function: disaggregators of amyloid fibrils (tau)
biosensor cells = assay: Toxicity to biosensor cells under seeding assay conditions; assay type: cell-based; conditions: under the assayed conditions

Sequence of tau fibrils (P10636 1-441 isoform P10636-8): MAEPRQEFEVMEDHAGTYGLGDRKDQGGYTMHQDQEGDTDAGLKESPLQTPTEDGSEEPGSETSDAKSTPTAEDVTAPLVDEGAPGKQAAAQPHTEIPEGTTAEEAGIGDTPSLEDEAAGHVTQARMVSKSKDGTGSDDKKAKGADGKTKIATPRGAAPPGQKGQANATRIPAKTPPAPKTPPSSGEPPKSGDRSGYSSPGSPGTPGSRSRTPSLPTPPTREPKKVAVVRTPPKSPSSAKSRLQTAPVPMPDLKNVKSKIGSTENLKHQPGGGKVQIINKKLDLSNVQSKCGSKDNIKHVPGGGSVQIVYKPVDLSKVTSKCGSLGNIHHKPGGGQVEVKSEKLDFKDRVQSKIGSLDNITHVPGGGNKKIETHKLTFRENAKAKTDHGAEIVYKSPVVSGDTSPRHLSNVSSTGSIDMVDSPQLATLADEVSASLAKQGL

Function (tau fibrils) | SMILES | other results
– | Cc1cc(NC(=O)Cc2ccccc2Cl)ccc1Br [MOL06, N-(4-bromo-3-methylphenyl)-2-(2-chlorophenyl)acetamide] | Function (α-synuclein fibrils): Dissociate α- synuclein fibrils
Dissociate tau fibrils | COc1cccc2cc(C(=O)Nc3cccc(-c4cn5ccccc5n4)c3)c(=O)oc12 [compound 1541, N-(3-(imidazo[1,2-a]pyridin-2-yl)phenyl)-8-methoxy-2-oxo-2H-chromene-3-carboxamide] | –
Dissociate tau fibrils | O=C1C(Cl)=C(Nc2ccc(Cl)cc2)C(=O)c2ccccc21 [MOL18, 2-chloro-3-[(4-chlorophenyl)amino]naphthalene-1,4-dione] | –
– | Oc1cccc(-c2c3nc(c(-c4cccc(O)c4)c4ccc([nH]4)c(-c4cccc(O)c4)c4nc(c(-c5cccc(O)c5)c5ccc2[nH]5)CC4)C=C3)c1 [FDA-A4, Temoporfin] | toxicity to biosensor cells (biosensor cells): toxic
